From PMC10939466, “A transferrin receptor targeting dual-modal MR/NIR fluorescent imaging probe for glioblastoma diagnosis” (Regenerative Biomaterials, 2024)
Square brackets hold non-standard residues; d marks the D form. Peptide text beside a SMILES is read from it.

Experiments:
[1] = Cellular uptake of the peptides; type: cell-based
[2] = test system: BBB model in vitro (bEnd.3 cells co-cultured with U87-MG cells); experiment: Sodium fluorescein permeability of the in vitro BBB model; type: in vitro ADME; settings: transwell 3 µm pore, 0.33 cm^2, bEnd.3 upper / U87-MG lower chamber; NaFl 10 µg/mL; 30, 60, 90 min; 37°C; fluorescence 485/535 nm
Procedure: A primary BBB model using bEnd.3 cells in vitro was established to evaluate the penetration ability of ^DTHR-Cy7-PEG-DSPE-SPIONs. The inner side of a polycarbonate transwell (Millipore, USA) with a mean pore size of 3 µm and a surface area of 0.33 cm^2 was coated with collagen. After coating, the transwell was left to air dry for 30 min. Then, bEnd.3 cells (5 × 10^4 cells per well) were seeded into the upper chamber of a 24-well transwell plate. After 48 h, 1 × 10^5 U87-MG cells were seeded in the lower chamber of each well. Both cells were co-cultured for 1 week.
The endothelial permeability coefficient of sodium fluorescein (NaFl) was used to evaluate the function of BBB model in vitro, as previously described. In brief, 200 µL NaFl solution (10 µg/mL) and 900 µL PBS were added to the upper and lower chambers of the BBB models, respectively. And then cultured in a 5% CO2 atmosphere at 37°C. Following incubation periods of 30, 60 and 90 min, 100 µL samples from the lower chambers were transferred to a new 96-well plate. […] Finally, the relative fluorescence intensity of the samples was measured using a multi-detector monochromator microplate reader (485/535 nm), with NaFl concentration deduced from a standard curve. The apparent permeability coefficient (Papp) was calculated using the formula: Papp=dQ/dt×1/(A×C0). […]

SMILES	cellular uptake compared to THR [1]	Papp of NaFl, BBB model [2]
CSCC[C@@H](NC(=O)[C@@H](Cc1c[nH]c2ccccc12)NC(=O)[C@@H](CO)NC(=O)[C@H]1CCCN1C(=O)[C@H](NC(=O)[C@@H](Cc1c[nH]c2ccccc12)NC(=O)[C@H]1CCCN1C(C)=O)C(C)C)C(=O)N1CCC[C@@H]1C(=O)N1CCC[C@@H]1C(=O)N[C@H](CCCNC(=N)N)C(=O)N[C@H](Cc1c[nH]cn1)C(=O)N[C@@H](C(=O)O)[C@H](C)O [^DTHR, Ac-pwvpswmpprht-COOH] (Ac-[dP][dW][dV][dP][dS][dW][dM][dP][dP][dR][dH][dT]-OH)	lower cellular uptake	–
O=C([O-])c1ccccc1-c1c2ccc(=O)cc-2oc2cc([O-])ccc12.[Na+].[Na+] [NaFl, sodium fluorescein]	–	11.24 ± 0.73 ×10^−6 cm/s
